SMILES strings stand for the structures.

We go through 1 molecule from patent US20200390100A1, “SUBSTITUTED N-HETEROCYCLYL- AND N-HETEROARYL-TETRAHYDROPYRIMIDINONES AND THE SALTS THEREOF, AND THE USE OF SAME AS HERBICIDAL ACTIVE SUBSTANCES” (Bayer Aktiengesellschaft, priority 2017, published 2020).

Holding throughout (assay type): in vivo
In assay [1] the test system is Abutilon theophrasti. Nature of the assay: Herbicidal pre-emergence action (Part 2), 1280 g/ha. The conditions noted are these: application rate 1280 g/ha, scored visually after about 3 weeks, Table D5. In outline:
(§1)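 Weed seeds were sown in sandy loam and covered with soil, then compound formulated as WP or EC was sprayed onto the covering soil as aqueous suspension/emulsion with 0.5% additive at 600 L/ha water. Pots were kept in a greenhouse; activity was scored visually versus untreated controls after about 3 weeks (0–100%).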

Assay [2] deals with Amaranthus retroflexus. Described as above. The following applies: application rate 1280 g/ha, scored visually after about 3 weeks, Table D6. Put shortly: as §1
In a further assay the test system is Stellaria media. The description is as above. The conditions noted are these: application rate 1280 g/ha, scored visually after about 3 weeks, Table D8. In outline: as §1
The test system of assay [3] is Poa annua. The assay is described as above. The following applies: application rate 1280 g/ha, scored visually after about 3 weeks, Table D3. Put shortly: as §1
The subject of the next assay is Setaria viridis. The description is as above. The conditions noted are these: application rate 1280 g/ha, scored visually after about 3 weeks, Table D4. Put shortly:
as §1

The test system of the next assay is Echinochloa crus-galli. Described as above. The following applies: application rate 1280 g/ha, scored visually after about 3 weeks, Table D1. Put shortly: as §1
The subject of assay [4] is Matricaria inodora. The assay is described as above. The following applies: application rate 1280 g/ha, scored visually after about 3 weeks, Table D7. Put shortly:
as §1

For assay [5], the system named is Abutilon theophrasti. The experiment in a line: Herbicidal post-emergence action (Part 2), 1280 g/ha. The following applies: application rate 1280 g/ha, rated visually after about 3 weeks, Table C4. In outline: (§2)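 Weeds sown in sandy loam, greenhouse-grown 2 to 3 weeks and sprayed at the one-leaf stage with WP or EC formulations as aqueous suspension or emulsion plus 0.5% additive at 600 liters per hectare water. Activity rated visually about 3 weeks later versus untreated controls (0% = like control, 100% = dead).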

Assay [6] deals with Amaranthus retroflexus. Described as above. The conditions noted are these: application rate 1280 g/ha, rated visually after about 3 weeks, Table C5. Put shortly: as §2
The subject of assay [7] is Poa annua. Described as above. The conditions noted are these: application rate 1280 g/ha, rated visually after about 3 weeks, Table C2. In outline:
as §2

The test system of assay [8] is Matricaria inodora. The description is as above. The following applies: application rate 1280 g/ha, rated visually after about 3 weeks, Table C6. In outline:
as §2

Consider `CC(=O)OC1N(c2cc(C(C)(C)C)on2)C(=O)N(C)CC1(C)C` (centres unmarked) [I.62-162], for which the Abutilon theophrasti in the assay on Abutilon theophrasti [1] and with Abutilon theophrasti [5] was 100% throughout. The Amaranthus retroflexus in the assay on Amaranthus retroflexus [2] and with Amaranthus retroflexus [6] was 100% throughout. In the assay on Stellaria media, this molecule returned a Stellaria media of 100%. Moreover, the “Poa Annua” value in the assay on Poa annua [3] and in the assay on Poa annua [7] was 100% throughout. The molecule further had a Setaria viridis in the assay on Setaria viridis of 100%. For the same molecule, the Echinochloa crus-galli in the assay on Echinochloa crus-galli was found to be 90%. In addition, the Matricaria inodora in the assay with Matricaria inodora [4] and in the assay with Matricaria inodora [8] was 100% in each case.
